Measured values: paper PMC3199943, “Screening the MayBridge Rule of 3 Fragment Library for Compounds That Interact with the Trypanosoma brucei myo-Inositol-3-Phosphate Synthase and/or Show Trypanocidal Activity” (Molecular Biology International, 2011)
Read-outs that look alike come from different tables or passages of the source.

Assays:
A549 cells = assay: Cytotoxicity against A549 cells, Alamar Blue; assay type: cell-based; settings: for viability at 500 µM: Homo sapiens, A549, 65 h
Protocol: (§1) Cytotoxic effects against HeLa and A549 cells were determined in a similar manner. Briefly, the cells were cultured in DMEM supplemented with 10% FCS and 2 mM L-Glutamine. Cells were plated at initial cell concentration of 2 × 10^4 cells/well and incubated with the compounds for ~65 hours prior to addition of Alamar Blue solution for a further 5 hours.

HeLa cells = assay: cells; settings: for viability at 500 µM / CC50: Homo sapiens, HeLa; for viability at 500 µM: 65 h; for CC50: read-out: HeLa ED50
Protocol: as §1

[1] = Supplementary Table 1, compound 0.5 mM, percentage of controls (n=1)
[2] = read-out: HeLa Cells Alamar Blue
[3] = Supplementary Table 1, compound 0.5 mM, percentage of controls, mean ± SD (n=3) or SE (n=2)
[4] = read-out: HeLa Cells Alamar Blue, Supplementary Table 1, compound 0.5 mM, percentage of controls, mean ± SD (n=3) or SE (n=2)

SMILES	viability at 500 µM (A549 cells; [1])	viability at 500 µM (HeLa cells; [2])	further results
Cc1nc(-c2cccc(N)c2)cs1 [compound 546, 3‐(2‐methyl‐1,3‐thiazol‐4‐yl)aniline]	61.9%	68.5 ± 8.2%	–
Cc1nc(CCN)cs1 [compound 141, 2‐(2‐methyl‐1,3‐thiazol‐4‐yl)ethylamine]	105%	98.9 ± 7.6%	–
OCc1cccc(Oc2ccccn2)c1 [compound 630, [3‐(pyrid‐2‐yloxy)phenyl]methanol]	98.3%	80 ± 1%	–
CCOC(=O)c1sc(Cl)nc1C [compound 672, ethyl 2‐chloro‐4‐methyl‐1,3‐thiazole‐5‐carboxylate]	–	–	A549 Cells Alamar Blue (A549 cells; [1]): 60.5 percentage of controls; HeLa Cells Alamar Blue (HeLa cells; [3]): 89.6 ± 12.5 percentage of controls
Cc1ccc(O)c2c1CCC2 [compound 173, 7‐methylindan‐4‐ol]	53.7%	43.2 ± 15.6%	–
OCc1ccc(-c2cccnc2)cc1 [compound 489, (4‐pyrid‐3‐ylphenyl)methanol]	131%	66.4 ± 18.8%	–
Cc1ccccc1NC(N)=S [compound 326, N‐(2‐methylphenyl)thiourea]	125%	–	viability at 500 µM (HeLa cells; [4]): 111 ± 8.5%
OCC1Cc2ccccc2O1 (stereo not drawn) [compound 187, 2,3‐dihydro‐1‐benzofuran‐2‐ylmethanol]	50.5%	94.3 ± 13.3%	–
CC(=O)Nc1ccc(Cl)cc1C [compound 473, 4‐chloro‐2‐methylacetanilide]	76.1%	109 ± 11.9%	–
CNCc1nn(C)c2ccccc12 [compound 401, N‐methyl‐N‐[(1‐methyl‐1H‐indazol‐3‐yl)methyl]amine]	–	–	A549 Cells Alamar Blue (A549 cells; [1]): 91.7 percentage of controls; HeLa Cells Alamar Blue (HeLa cells; [3]): 92.5 ± 7.4 percentage of controls
NCc1ccccc1-n1cccc1 [compound 363, [2‐(1H‐pyrrol‐1‐yl)phenyl]methylamine]	45.6%	42.6 ± 11.7%	–
OCCc1coc2ccccc12 [compound 284, 2‐benzo[b]furan‐3‐ylethanol]	63.3%	58.7 ± 17.4%	–
Cn1nc(CO)cc1-c1ccccc1 [compound 525, (1‐methyl‐5‐phenyl‐1H‐pyrazol‐3‐yl)methanol]	–	–	A549 Cells Alamar Blue (A549 cells; [1]): 64.6 percentage of controls; HeLa Cells Alamar Blue (HeLa cells; [3]): 64.8 ± 9.8 percentage of controls
Cc1cc(N)ccc1C(C)C.Cl [compound 497, 4‐isopropyl‐3‐methylaniline hydrochloride]	–	–	A549 Cells Alamar Blue (A549 cells; [1]): 115.7 percentage of controls; HeLa Cells Alamar Blue (HeLa cells; [3]): 90.1 ± 2.1 percentage of controls
OCC1CCOCC1 [compound 43, tetrahydro‐2H‐pyran‐4‐ylmethanol]	79.2%	91.9 ± 5.9%	–
Cc1cccc2cc[nH]c12 [compound 95, 7‐methyl‐1H‐indole]	13.4%	11.9 ± 8.8%	–
CNCc1cccc(-c2nccs2)c1 [compound 653, N‐methyl‐3‐(1,3‐thiazol‐2‐yl)benzylamine]	99.6%	93.3 ± 2.7%	–
CNCc1ccnc(N2CCCCC2)c1 [compound 671, N‐methyl‐N‐[(2‐piperidin‐1‐ylpyridin‐4‐yl)methyl]amine]	–	–	A549 Cells Alamar Blue (A549 cells; [1]): 82.7 percentage of controls; HeLa Cells Alamar Blue (HeLa cells; [3]): 54.8 ± 9.2 percentage of controls
N#Cc1ccsc1N [compound 68, 2‐aminothiophene‐3‐carbonitrile]	136%	102 ± 3.1%	–

SMILES	viability at 500 µM (A549 cells; [1])	viability at 500 µM (HeLa cells; [2])	further results
O=C1N[C@@H](Cc2ccccc2)CO1 [compound 421, (S)‐4‐BENZYL‐2‐OXAZOLIDINONE]	80.2%	86 ± 5.1%	–
Cl.Cl.NCCc1c[nH]cn1 [compound 475, 2‐(1H‐imidazol‐4‐yl)ethylamine dihydrochloride]	–	–	A549 Cells Alamar Blue (A549 cells): 80.3; HeLa Cells Alamar Blue (HeLa cells): 95.9 ± 6.6
OCc1ccc(-c2ccccc2)nc1 [compound 492, (6‐phenyl‐3‐pyridinyl)methanol]	81.3%	78.6 ± 15.6%	–
O=C(O)c1ccc(CN2CCCC2)cc1 [compound 665, 4‐(pyrrolidin‐1‐ylmethyl)benzoic acid]	104%	90.3 ± 6.3%	–
Nc1ccc(-n2cccc2)cc1 [compound 250, 4‐(1H‐pyrrol‐1‐yl)aniline]	89.1%	107 ± 16.6%	CC50 (HeLa cells): 1400 ± 100 µM
Clc1cn2ccsc2n1 [compound 253, 6‐chloroimidazo[2,1‐b][1,3]thiazole]	85.1%	82.1%	–
Cc1cccc(N)c1N [compound 55, 3‐methylbenzene‐1,2‐diamine]	26.5%	11.2 ± 7.2%	–
CC(=O)c1cccc(F)c1 [compound 125, 1‐(3‐fluorophenyl)ethan‐1‐one]	101%	83 ± 14.8%	–
Nc1ccccc1N1CCOCC1 [compound 436, 2‐morpholinoaniline]	56.4%	79.1 ± 5.8%	–
Cc1cc(N)c(N)cc1Cl [compound 240, 4-chloro-5-methylbenzene-1,2-diamine]	14.7%	12.1 ± 8.7%	CC50 (HeLa cells): 454 ± 55 µM
Nc1ccncc1 [compound 2, pyridin‐4‐amine]	106%	103 ± 2.2%	–
Cn1ccc2ccc(CO)cc21 [compound 278, (1‐methyl‐1H‐indol‐6‐yl)methanol]	47.8%	18.2 ± 10.4%	–
OCc1ncoc1-c1ccccc1 [compound 397, (5‐phenyl‐1,3‐oxazol‐4‐yl)methanol]	56.4%	18.2 ± 7.9%	–
Nc1ccc(-c2cccnc2)cc1 [compound 347, 4‐pyridin‐3‐ylaniline]	113%	79.3 ± 2.8%	–
COC(=O)c1scc(C)c1Cl [compound 551, methyl 3‐chloro‐4‐methylthiophene‐2‐carboxylate]	–	–	A549 Cells Alamar Blue (A549 cells; [1]): 104.9 percentage of controls; HeLa Cells Alamar Blue (HeLa cells; [3]): 90.7 ± 10.3 percentage of controls
Cc1cccc(CO)n1 [compound 62, (6‐methylpyridin‐2‐yl)methanol]	67.5%	98.6 ± 7.3%	–
Oc1ncnc2cccc(F)c12 [compound 296, 5‐fluoroquinazolin‐4‐ol]	63.7%	–	viability at 500 µM (HeLa cells; [4]): 92.7 ± 1.9%
O=C(O)c1ccc(-n2cccc2)cc1 [compound 512, 4‐(1H‐pyrrol‐1‐yl)benzoic acid]	63.2%	97.5 ± 13.1%	–
NC1CCN(Cc2ccccc2)CC1 [compound 548, 1‐benzylpiperidin‐4‐amine]	89.3%	39.5 ± 10%	–

SMILES	viability at 500 µM (A549 cells; [1])	viability at 500 µM (HeLa cells; [2])	further results
CNCc1ccc2ncccc2c1 [compound 366, N‐methyl‐N‐(quinolin‐6‐ylmethyl)amine]	74.6%	64.6 ± 11.4%	–
COC(=O)c1scc(C)c1N [compound 354, methyl 3‐amino‐4‐methylthiophene‐2‐carboxylate]	–	–	A549 Cells Alamar Blue (A549 cells; [1]): 32.3 percentage of controls; HeLa Cells Alamar Blue (HeLa cells; [3]): 72.8 ± 8.6 percentage of controls
OCc1ccc(-n2ccnc2)cc1 [compound 386, [4‐(1H‐imidazol‐1‐yl)phenyl]methanol]	101%	103 ± 15.3%	–
Cn1nc(CO)c2ccccc21 [compound 286, (1‐methyl‐1H‐indazol‐3‐yl)methanol]	73.2%	90.9 ± 3.1%	–
CC(=O)c1cc2cc(Cl)ccc2o1 [compound 589, 1‐(5‐chlorobenzo[b]furan‐2‐yl)ethan‐1‐one]	–	–	A549 Cells Alamar Blue (A549 cells; [1]): 99.5 percentage of controls; HeLa Cells Alamar Blue (HeLa cells; [3]): 95.8 ± 12.5 percentage of controls
O=C(O)CSc1ccc(Cl)cc1 [compound 641, 2‐[(4‐chlorophenyl)thio]acetic acid]	119%	105 ± 3.7%	–
CCc1nc(C)c[nH]1 [compound 25, 2‐ethyl‐4‐methyl‐1H‐imidazole]	83.9%	98 ± 7.8%	–
NCc1ccc2occc2c1 [compound 165, 1‐benzofuran‐5‐ylmethylamine]	90.7%	92.6 ± 8.6%	–
O=C(O)CC12CC3CC(CC(C3)C1)C2 [compound 588, 2‐(1‐adamantyl)acetic acid]	85.4%	95.4 ± 14.1%	–
NCc1cccc(F)c1 [compound 70, 3‐fluorobenzylamine]	104%	104 ± 17.4%	–
OCc1ccnc(N2CCCC2)c1 [compound 438, (2‐pyrrolidin‐1‐ylpyrid‐4‐yl)methanol]	71.9%	103 ± 14.9%	–
NCCOc1ccccc1 [compound 122, 2‐phenoxyethylamine]	100%	73.6 ± 5.4%	–
CNCc1ccc(-c2nccs2)cc1 [compound 654, N‐methyl‐4‐(1,3‐thiazol‐2‐yl)benzylamine]	114%	66.2 ± 16.9%	–
OCc1cc(-c2cccs2)[nH]n1 [compound 459, (5‐thien‐2‐yl‐1H‐pyrazol‐3‐yl)methanol]	85%	27.8 ± 10.9%	–
N#CC1(O)CN2CCC1CC2 (stereo not drawn) [compound 208, 3‐hydroxyquinuclidine‐3‐carbonitrile]	61.8%	99.4 ± 11.2%	–
Nc1ccccc1N1CCCC1 [compound 289, 2‐pyrrolidin‐1‐ylaniline]	23.8%	11.4 ± 9.5%	–
CCCCc1nc(CO)c[nH]1 [compound 223, (2‐butyl‐1H‐imidazol‐4‐yl)methanol]	139%	105 ± 13.7%	–
O=C(O)c1sccc1Cl [compound 290, 3‐chlorothiophene‐2‐carboxylic acid]	117%	86.9 ± 14.3%	–
